Patent US20240409899A1, “PRODUCTION OF HEPATOCYTES” (Cambridge Enterprise Limited (GB/GB), priority 2021, published 2024)

Tests used:
FoP-Heps [1] = experiment: CYP3A4 activity (P450 Glo) in FoP-Heps treated with exogenous nuclear receptor ligands; conditions: for effect on CYP3A4 activity: vs untreated control, FoP-Heps with 3TFs plus the ligand's nuclear receptor (AR for testosterone, RORc for desmosterol)
Experimental: hPSCs were dissociated into single cells following incubation with StemPro Accutase (Thermo Fisher) for 5 minutes at 37° C. and seeded at a density of 40-50.000 cells/cm2 in E8 medium supplemented with 10 μM ROCK Inhibitor Y-27632 (Selleckchem). E8 medium was replenished the following day. Following 48 h, initial induction of the transgenes was achieved by incubation in E6 medium (E8 without growth factors) supplemented with […] doxycycline (dox) for 24 h. Cells were then maintained in Hepatozyme complete medium supplemented with […] dox for the remaining duration of the protocol. Medium was replenished every day for the next 4 days, and every other day here after. For specific experiments, cell lines were treated with 100 nM of desmosterol, testosterone or […] (E2) from day 2 of forward programming. All ligands were purchased from Sigma-Aldrich and reconstituted in ethanol. For 3D cultures, forward programmed cells were embedded in Matrigel Growth Factor Reduced Basement Membrane Matrix, Phenol Red-free (Corning) at day 15 or day 20 and cultured for 5 days or 10 days, respectively. Cells were dissociated with Hank's based cell dissociation buffer (Gibco) for 20 minutes at 37° C., resuspended in Matrigel and seeded in 40-50 μL domes in Hepatozyme complete medium supplemented with […] dox.
Measurement of CYP3A4 enzymatic activity was performed using the P450 Glo kit (Promega). Cells were incubate with 1:1000 luciferin-IPA in Hepatozyme complete for 1 h at 37° C. Supernatant was mixed with detection reagent in a 1:1 ratio and incubated at RT for 20 minutes in Greiner white 96 well microplates (Sigma Aldrich). Luminescence was measured in triplicate on a GloMax plate reader. Hepatozyme complete medium was used as background control. Relative light units were normalised for background, volume and average total number of cells obtained after differentiation.

FoP-Heps [2] = experiment: Fatty acid treatment, intracellular lipid accumulation (BODIPY staining) in 3D FoP-Heps; type: cell-based, human; conditions: 0.25 mM conjugated with BSA, 7 days, 3D culture from day 20; 4TF eFoP- and iFoP-Heps; BSA control
Experimental: (§1) Forward programmed cells were embedded in 3D from day 20 and cultured for 7 days in Hepatozyme complete medium supplemented with either BSA (control), or oleic acid (0.25 mM) or palmitic acid (0.25 mM) conjugated with BSA. Intracellular lipid accumulation was detected by incubating cells with 1 μl/ml Bodipy (Thermo scientific) for 30 minutes, followed by DAPI (Hoechst) diluted 1:10.000 in PBS for 30 minutes and imaged on a Zeiss LSM 700 confocal microscope.

FoP-Heps [3] = experiment: APAP toxicity, cell viability (Presto Blue) in 3D FoP-Heps; type: cell-based, human; conditions: 25 mM for 48 h (day 18 to day 20), 3D cultures; 4TF FoP-Heps; normalised against untreated
Experimental: The hepatotoxicity of acetaminophen (APAP) was tested by incubating forward programmed cells cultured in 3D from day 15 in Hepatozyme complete medium supplemented with 25 mM acetaminophen (R&D) for 48 h hours (day 18 to day 20) after which cell viability was determined.
(§2) Cell viability was determined by incubating cells with 1:10 Presto Blue reagent (Invitrogen) in Hepatozyme complete medium at 37° C. for 4 hours. Fluorescence was measured using the EnVision plate reader with an excitation emission of 560 nm/590 nm.

FoP-Heps [4] = experiment: Fatty acid treatment, cell viability (Presto Blue) in 3D FoP-Heps; type: cell-based, human; conditions: 0.25 mM conjugated with BSA, 7 days, 3D culture from day 20; 4TF FoP-Heps; normalised against BSA control
Experimental: as §1, §2

[5] = 100 nM ligand from day 2, day 20 of forward programming

Q: For β-estradiol [p3-estradiol], which “increase in CYP3A4 activity” value (FoP-Heps [1]; 100 nM ligand from day 2, day 20 of forward programming, normalised to untreated control, FoP-Heps with 3TFs plus the ligand's nuclear receptor (ERα)) is on record?
A: 3 fold

Q: What about the “increase in CYP3A4 activity in 3TFs FoP-Heps” value (FoP-Heps [1]; 3TFs FoP-Heps without overexpressed nuclear receptor, 100 nM ligand) of the same molecule?
A: not observed

Q: For `CC(C)=CCC[C@@H](C)[C@H]1CC[C@H]2[C@@H]3CC=C4C[C@@H](O)CC[C@]4(C)[C@H]3CC[C@]12C` [desmosterol], which “effect on CYP3A4 activity” value (FoP-Heps [1]; [5]) is on record?
A: no effect

Q: How did the “accumulation of lipids (BODIPY staining)” value (FoP-Heps [2]) turn out when `CCCCCCCC/C=C\CCCCCCCC(=O)O` [OA, oleic acid] was run?
A: strong accumulation of lipids

Q: For `CC(=O)Nc1ccc(O)cc1` [acetaminophen], which “reduction in cell viability” value (FoP-Heps [3]) is on record?
A: 50%

Q: For `CCCCCCCCCCCCCCCC(=O)O` [PA, palmitic acid], which “cell viability (lipotoxicity)” value (FoP-Heps [4]) is on record?
A: reduction in cell viability

Q: How did the “effect on CYP3A4 activity” value (FoP-Heps [1]; [5]) turn out when `C[C@]12CC[C@H]3[C@@H](CCC4=CC(=O)CC[C@@]43C)[C@@H]1CC[C@@H]2O` [testosterone] was run?
A: significantly decreased
